Reference: the supplement of paper PMC10307832

Key:
Experiment in all cases: relative viability (nuclei count vs DMSO), 5 days (fraction); higher = more cells survive
Motesanib = compound: CC1(C)CNc2cc(NC(=O)c3cccnc3NCc3ccncc3)ccc21 [Motesanib]
Outline: (§1)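 Five library-drug doses, separated by factors of √10, were pinned into 1536-well plates holding lung cancer cell lines after an overnight stay at 37 °C. Cells were fixed, permeabilised and Hoechst-stained in one step after 5 days without medium change, then imaged at 4×. Viability compares treated-well with vehicle-well nuclei, counted in MetaXpress, as a median across plates. Passing plates had control CV below 25% and at least one doubling.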

[1] = compound: C[C@@]1(C(=O)Nc2ccc(F)nc2)CCCN1c1nc(Nc2cc(C3CC3)n[nH]2)c2cccn2n1
Outline: as §1

Motesanib + Alpelisib = compound: CC1(C)CNc2cc(NC(=O)c3cccnc3NCc3ccncc3)ccc21 [Motesanib] + Cc1nc(NC(=O)N2CCC[C@H]2C(N)=O)sc1-c1ccnc(C(C)(C)C(F)(F)F)c1 [Alpelisib] (partner 2 µM)
Outline: (§2)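 One day after seeding in 1536-well plates, lung cancer cell lines were dosed by pin tool. Dosing was either single-drug or a fixed anchor-drug dose plus five library-drug doses (not always all listed) in √10 steps. After 5 days, nuclei were stained in one fix-and-stain step and counted on 4× images, and relative viability is the nuclei count of treated wells over that of vehicle wells, given as the median of duplicate plates.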

[2] = compound: C[C@@]1(C(=O)Nc2ccc(F)nc2)CCCN1c1nc(Nc2cc(C3CC3)n[nH]2)c2cccn2n1 + CC(C)C[C@H](NC(=O)[C@H](Cc1ccccc1)NC(=O)c1cnccn1)B(O)O [Bortezomib] (partner 0.002 µM)
Outline: as §2

Cell Line | relative viability (Motesanib; 0.01 µM) | relative viability (Motesanib; 0.03162 µM) | relative viability (Motesanib; 0.1 µM) | relative viability (Motesanib; 0.3162 µM) | relative viability (Motesanib; 1 µM) | relative viability ([1]; 0.04 µM) | relative viability ([1]; 0.1265 µM) | relative viability ([1]; 0.4 µM) | relative viability ([1]; 1.265 µM) | relative viability (Motesanib + Alpelisib; first compound 0.01 µM) | relative viability (Motesanib + Alpelisib; first compound 0.03162 µM) | relative viability (Motesanib + Alpelisib; first compound 0.1 µM) | relative viability (Motesanib + Alpelisib; first compound 0.3162 µM) | relative viability (Motesanib + Alpelisib; first compound 1 µM) | relative viability ([2]; first compound 0.04 µM) | relative viability ([2]; first compound 0.1265 µM) | relative viability ([2]; first compound 0.4 µM) | relative viability ([2]; first compound 1.265 µM)
SK-LU-1 | 0.979 | 1.05 | 1.12 | 1.16 | 1.14 | 0.979 | 0.938 | 0.854 | 0.918 | 1.11 | 1.07 | 1.17 | 0.93 | 1.05 | 1.06 | 1.03 | 0.93 | 0.884
NCI-H1299 | 1.01 | 0.999 | 1.04 | 1.02 | 1.05 | 1.05 | 0.954 | 1.02 | 1.04 | 1.03 | 1.09 | 1.15 | 1.11 | 1.12 | 1.05 | 0.975 | 1.03 | 1.03
NCI-H2009 | 1.02 | 0.993 | 1.08 | 1.02 | 0.964 | 1.06 | 1.03 | 0.936 | 1 | 1.15 | 1.18 | 1.17 | 1.19 | 1.15 | 1.13 | 1.17 | 0.931 | 0.875
LOU-NH91 | 0.94 | 0.982 | 1.12 | 0.993 | 0.995 | 0.94 | 0.94 | 0.894 | 0.841 | 0.746 | 0.759 | 0.708 | 0.707 | 0.802 | 0.482 | 0.519 | 0.481 | 0.493
NCI-H2405 | 0.676 | 0.853 | 0.975 | 1.06 | 1.01 | 0.917 | 0.816 | 0.739 | 0.671 |  | 0.738 | 0.745 | 0.86 | 0.942 | 1 | 0.682 | 0.835 | 0.896
LCLC-97TM1 | 0.895 | 0.961 | 0.95 | 1.03 | 0.999 | 0.824 | 0.356 | 0.225 | 0.143 | 0.238 | 0.241 | 0.283 | 0.296 | 0.263 | 0.637 | 0.189 | 0.132 | 0.0641
NCI-H596 | 1.2 | 0.921 | 0.928 | 0.908 | 0.964 | 1.02 | 0.846 | 0.902 | 0.939 | 0.489 | 0.417 | 0.496 | 0.542 | 0.498 | 0.908 | 0.892 | 0.929 | 1
NCI-H727 | 0.83 | 1 | 0.9 | 0.974 | 0.849 | 0.677 | 0.38 | 0.36 | 0.414 | 0.599 | 0.678 | 0.504 | 0.514 | 0.602 | 0.763 | 0.385 | 0.339 | 0.338
H3255 | 0.905 | 1.04 | 0.978 | 1.05 | 1.01 | 1.05 | 0.954 | 0.931 | 0.882 | 0.78 | 0.7 | 0.762 | 0.684 | 0.771 | 0.973 | 1.02 | 0.719 | 0.669
NCI-H1437 | 0.964 | 0.958 | 0.998 | 1 | 0.957 | 1.04 | 0.918 | 0.679 | 0.714 | 0.983 | 0.979 | 0.901 | 1.02 | 1.07 | 0.398 | 0.521 | 0.328 | 0.276
LU99A | 0.911 | 1.03 | 0.905 | 1.02 | 0.98 | 0.72 | 0.645 | 0.6 | 0.381 | 0.465 | 0.555 | 0.511 | 0.488 | 0.559 | 0.984 | 0.837 | 0.623 | 0.445
HCC-827 | 1.09 | 1.08 | 1.06 | 1.07 | 1.09 | 1.02 | 1.01 | 0.968 | 1.07 | 0.99 | 1.01 | 1.03 | 1.03 | 1.03 | 1.07 | 1.03 | 0.971 | 0.926
HCC-366 | 1.04 | 1.01 | 0.991 | 1.04 | 1.07 | 1 | 0.98 | 1.03 | 0.753 | 0.445 | 0.422 | 0.449 | 0.424 | 0.321 | 1.06 | 1.04 | 1 | 0.802
BEN | 0.902 | 0.964 | 0.927 | 0.998 | 1.19 | 1.09 | 0.959 | 0.935 | 0.929 | 1.07 | 1.08 | 0.897 | 0.972 | 1.18 | 1.11 | 0.785 | 0.815 | 0.903
NCI-H23 | 1.02 | 0.915 | 0.758 | 1.08 | 1.04 | 0.788 | 0.501 | 0.523 | 0.553 | 0.798 | 0.481 |  | 0.639 | 0.603 | 0.642 | 0.44 | 0.472 | 0.442
201T | 0.982 | 0.971 | 1.02 | 0.987 | 0.963 | 0.955 | 0.833 | 0.682 | 0.796 | 1.08 | 1.05 | 1.01 | 0.857 | 1.06 | 1.1 | 0.958 | 1.01 | 0.957
NCI-H460 | 0.999 | 0.974 | 0.981 | 1.02 | 1 | 0.982 | 1.01 | 1.01 | 0.953 | 0.567 | 0.495 | 0.484 | 0.424 | 0.478 | 1.13 | 0.991 | 0.892 | 0.93
NCI-H661 | 0.972 | 1.02 | 0.985 | 1.04 | 0.964 | 1.04 | 1.04 | 1.01 | 0.875 | 0.356 | 0.608 | 0.683 | 0.641 | 0.882 | 0.924 | 1.08 | 0.653 | 0.819
HCC-15 | 0.955 | 0.972 | 0.896 | 1.16 | 1.01 | 0.85 | 0.667 | 0.727 | 0.764 | 0.97 | 0.885 | 0.969 | 0.972 | 0.931 | 0.943 | 0.742 | 0.881 | 1
NCI-H1563 | 1.04 | 0.973 | 1.09 | 0.953 | 0.994 | 1.04 | 0.918 | 0.805 | 0.934 | 0.985 | 0.92 | 0.946 | 0.879 | 0.95 | 0.853 | 0.826 | 0.73 | 0.747
ABC-1 | 0.919 | 0.938 | 0.863 | 1.09 | 0.97 | 0.884 | 0.738 | 0.51 | 0.507 | 1.02 | 0.995 | 1.24 | 0.974 | 1.18 | 0.329 | 0.318 | 0.264 | 0.183
LCLC-103H | 0.914 | 0.958 | 0.974 | 1.02 | 1.06 | 0.896 | 0.922 | 0.799 | 0.885 |  | 0.947 | 1.06 | 0.931 | 0.987 | 1.07 | 1.08 | 0.788 | 0.958
NCI-H441 | 1.02 | 1.06 | 0.981 | 1.08 | 1.16 | 0.719 | 0.549 | 0.664 | 0.703 | 0.699 | 0.998 | 1.03 | 0.636 | 0.847 | 0.567 | 0.285 | 0.276 | 0.463
EPLC-272H | 0.918 | 1.04 | 0.761 | 1.04 | 0.976 | 1.04 | 0.645 | 0.744 | 0.764 | 0.908 | 1.12 | 0.898 | 0.897 | 0.914 | 0.859 | 0.78 | 0.702 | 0.878
